From the supplement of paper PMC6045584
± gives the standard deviation of the averaged measurements.

Experiments:
CAMPTOTHECIN [1] = compound: T1, CC[C@@]1(O)C(=O)OCc2c1cc1n(c2=O)Cc2cc3ccccc3nc2-1 [CAMPTOTHECIN]; test: surviving fraction relative to DMSO-only wells; higher = less growth inhibition; conditions: exposure time: 5 days
How it was run: (§1)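 Surviving fraction is CellTiter-Glo luminescence divided by the median of wells given DMSO only. For this, log-phase tumour cell lines went into 384-well plates at 250–500 cells per well and, 24 hours later, into five days of continuous inhibitor exposure at 0.5, 1, 5, 10, 50, 100, 500 and 1000 nM. Lines were screened three times and retained only if replicate Pearson r >0.7 and median Z' >0.3.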

CELECOXIB [2] = compound: T2, Cc1ccc(-c2cc(C(F)(F)F)nn2-c2ccc(S(N)(=O)=O)cc2)cc1 [CELECOXIB]; test: as above; conditions: exposure time: 5 days
How it was run: as §1

[3] = compound: CC(=O)NCC(=O)N1[C@@H]2CC[C@H]1c1ccc(Nc3ncc(C(F)(F)F)c(NC4CCC4)n3)cc12; test: as above; conditions: exposure time: 5 days
How it was run: as §1

PACLITAXEL [4] = compound: T3, CC(=O)O[C@H]1C(=O)[C@@]2(C)[C@H]([C@H](OC(=O)c3ccccc3)[C@]3(O)C[C@H](OC(=O)[C@H](O)[C@@H](NC(=O)c4ccccc4)c4ccccc4)C(C)=C1C3(C)C)[C@]1(OC(C)=O)CO[C@@H]1C[C@@H]2O [PACLITAXEL]; test: as above; conditions: exposure time: 5 days
How it was run: as §1

[5] = compound: CC(=O)c1c(C)c2cnc(Nc3ccc(N4CCNCC4)cn3)nc2n(C2CCCC2)c1=O; test: as above; conditions: exposure time: 5 days
How it was run: as §1

CARBOPLATIN [6] = compound: T4, O=C(O)C1(C(=O)O)CCC1.[NH2-].[NH2-].[Pt+2] [CARBOPLATIN]; test: as above; conditions: exposure time: 5 days
How it was run: as §1

GEFITINIB [7] = compound: T5, COc1cc2ncnc(Nc3ccc(F)c(Cl)c3)c2cc1OCCCN1CCOCC1 [GEFITINIB]; test: as above; conditions: exposure time: 5 days
How it was run: as §1

YM155 [8] = compound: T6, COCC[n+]1c2c(n(Cc3cnccn3)c1C)C(=O)c1ccccc1C2=O [YM155]; test: as above; conditions: exposure time: 5 days
How it was run: as §1

OSI-906 = compound: C[C@]1(O)C[C@@H](c2nc(-c3ccc4ccc(-c5ccccc5)nc4c3)c3c(N)nccn32)C1 [OSI-906]; test: as above; conditions: exposure time: 5 days
How it was run: as §1

CAMPTOTHECIN [9] = compound: T1, CAMPTOTHECIN; test: area under dose-response curve of surviving fraction (unscaled, Aref=0) (surviving fraction x log10(nM)); higher = more resistant; conditions: exposure time: 5 days; dose range 0.5-1000 nM
How it was run: (§2)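 Each tumour cell line was screened three times in 384-well plates, receiving eight inhibitor concentrations from 0.5 to 1000 nM for five days. CellTiter-Glo luminescence gave viability, normalised to DMSO-only wells. Using the drc R package, surviving fractions were fitted with 3-parameter logistic dose-response curves, and the unscaled activity area over log10 dose (Aref = 0) was taken as the area under the curve.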

CELECOXIB [10] = compound: T2, CELECOXIB; test: as above; conditions: exposure time: 5 days; dose range 0.5-1000 nM
How it was run: as §2

[11] = compound: CC(=O)NCC(=O)N1[C@@H]2CC[C@H]1c1ccc(Nc3ncc(C(F)(F)F)c(NC4CCC4)n3)cc12; test: as above; conditions: exposure time: 5 days; dose range 0.5-1000 nM
How it was run: as §2

PACLITAXEL [12] = compound: T3, PACLITAXEL; test: as above; conditions: exposure time: 5 days; dose range 0.5-1000 nM
How it was run: as §2

[13] = compound: CC(=O)c1c(C)c2cnc(Nc3ccc(N4CCNCC4)cn3)nc2n(C2CCCC2)c1=O; test: as above; conditions: exposure time: 5 days; dose range 0.5-1000 nM
How it was run: as §2

CARBOPLATIN [14] = compound: T4, CARBOPLATIN; test: as above; conditions: exposure time: 5 days; dose range 0.5-1000 nM
How it was run: as §2

GEFITINIB [15] = compound: T5, GEFITINIB; test: as above; conditions: exposure time: 5 days; dose range 0.5-1000 nM
How it was run: as §2

YM155 [16] = compound: T6, YM155; test: as above; conditions: exposure time: 5 days; dose range 0.5-1000 nM
How it was run: as §2

HCC1395 BREAST
surviving fraction (CAMPTOTHECIN [1]; 0.5 nM): 0.71 ± 0.18
surviving fraction (CAMPTOTHECIN [1]; 1 nM): 0.909 ± 0.071
surviving fraction (CAMPTOTHECIN [1]; 5 nM): 0.788 ± 0.064
surviving fraction (CAMPTOTHECIN [1]; 10 nM): 0.732 ± 0.044
surviving fraction (CAMPTOTHECIN [1]; 50 nM): 0.627 ± 0.029
surviving fraction (CAMPTOTHECIN [1]; 100 nM): 0.57 ± 0.086
surviving fraction (CAMPTOTHECIN [1]; 500 nM): 0.421 ± 0.049
surviving fraction (CAMPTOTHECIN [1]; 1000 nM): 0.344 ± 0.09
surviving fraction (CELECOXIB [2]; 0.5 nM): 1.17 ± 0.084
surviving fraction (CELECOXIB [2]; 1 nM): 1.2 ± 0.13
surviving fraction (CELECOXIB [2]; 5 nM): 1.32 ± 0.041
surviving fraction (CELECOXIB [2]; 10 nM): 1.26 ± 0.053
surviving fraction (CELECOXIB [2]; 50 nM): 1.27 ± 0.038
surviving fraction (CELECOXIB [2]; 100 nM): 1.22 ± 0.041
surviving fraction (CELECOXIB [2]; 500 nM): 1.25 ± 0.053
surviving fraction (CELECOXIB [2]; 1000 nM): 1.21 ± 0.037
surviving fraction ([3]; 0.5 nM): 0.928 ± 0.15
surviving fraction ([3]; 1 nM): 1.05 ± 0.12
surviving fraction ([3]; 5 nM): 0.979 ± 0.062
surviving fraction ([3]; 10 nM): 1.04 ± 0.0025
surviving fraction ([3]; 50 nM): 0.962 ± 0.12
surviving fraction ([3]; 100 nM): 0.94 ± 0.13
surviving fraction ([3]; 500 nM): 0.991 ± 0.027
surviving fraction ([3]; 1000 nM): 0.928 ± 0.092
surviving fraction (PACLITAXEL [4]; 0.5 nM): 0.749 ± 0.14
surviving fraction (PACLITAXEL [4]; 1 nM): 0.821 ± 0.065
surviving fraction (PACLITAXEL [4]; 5 nM): 0.782 ± 0.033
surviving fraction (PACLITAXEL [4]; 10 nM): 0.547 ± 0.11
surviving fraction (PACLITAXEL [4]; 50 nM): 0.419 ± 0.16
surviving fraction (PACLITAXEL [4]; 100 nM): 0.362 ± 0.054
surviving fraction (PACLITAXEL [4]; 500 nM): 0.396 ± 0.088
surviving fraction (PACLITAXEL [4]; 1000 nM): 0.405 ± 0.051
surviving fraction ([5]; 0.5 nM): 1.22 ± 0.076
surviving fraction ([5]; 1 nM): 0.965 ± 0.17
surviving fraction ([5]; 5 nM): 1.19 ± 0.088
surviving fraction ([5]; 10 nM): 1.13 ± 0.087
surviving fraction ([5]; 50 nM): 1.28 ± 0.09
surviving fraction ([5]; 100 nM): 1.1 ± 0.11
surviving fraction ([5]; 500 nM): 1.31 ± 0.083
surviving fraction ([5]; 1000 nM): 1.34 ± 0.07
surviving fraction (CARBOPLATIN [6]; 0.5 nM): 1.16 ± 0.058
surviving fraction (CARBOPLATIN [6]; 1 nM): 1.1 ± 0.044
surviving fraction (CARBOPLATIN [6]; 5 nM): 1.16 ± 0.071
surviving fraction (CARBOPLATIN [6]; 10 nM): 1.198 ± 0.0097
surviving fraction (CARBOPLATIN [6]; 50 nM): 1.15 ± 0.16
surviving fraction (CARBOPLATIN [6]; 100 nM): 1.18 ± 0.062
surviving fraction (CARBOPLATIN [6]; 500 nM): 1.17 ± 0.13
surviving fraction (CARBOPLATIN [6]; 1000 nM): 1.04 ± 0.1
surviving fraction (GEFITINIB [7]; 0.5 nM): 1.07 ± 0.057
surviving fraction (GEFITINIB [7]; 1 nM): 1.07 ± 0.035
surviving fraction (GEFITINIB [7]; 5 nM): 1.18 ± 0.12
surviving fraction (GEFITINIB [7]; 10 nM): 1.22 ± 0.17
surviving fraction (GEFITINIB [7]; 50 nM): 1.24 ± 0.059
surviving fraction (GEFITINIB [7]; 100 nM): 1.21 ± 0.045
surviving fraction (GEFITINIB [7]; 500 nM): 1.2 ± 0.085
surviving fraction (GEFITINIB [7]; 1000 nM): 1.11 ± 0.039
surviving fraction (YM155 [8]; 0.5 nM): 0.883 ± 0.23
surviving fraction (YM155 [8]; 1 nM): 1.07 ± 0.031
surviving fraction (YM155 [8]; 5 nM): 1.15 ± 0.035
surviving fraction (YM155 [8]; 10 nM): 1.01 ± 0.056
surviving fraction (YM155 [8]; 50 nM): 0.733 ± 0.11
surviving fraction (YM155 [8]; 100 nM): 0.427 ± 0.12
surviving fraction (YM155 [8]; 500 nM): 0.278 ± 0.079
surviving fraction (YM155 [8]; 1000 nM): 0.239 ± 0.065
surviving fraction (OSI-906; 0.5 nM): 0.851 ± 0.028
surviving fraction (OSI-906; 1 nM): 0.962 ± 0.13
surviving fraction (OSI-906; 5 nM): 0.977 ± 0.095
surviving fraction (OSI-906; 10 nM): 0.949 ± 0.027
surviving fraction (OSI-906; 50 nM): 1.04 ± 0.014
surviving fraction (OSI-906; 100 nM): 1.12 ± 0.13
surviving fraction (OSI-906; 500 nM): 0.847 ± 0.14
surviving fraction (OSI-906; 1000 nM): 0.986 ± 0.043
area under dose-response curve (CAMPTOTHECIN [9]): 2.09
area under dose-response curve (CELECOXIB [10]): 4.09
area under dose-response curve [11]: 3.19
area under dose-response curve (PACLITAXEL [12]): 1.76
area under dose-response curve [13]: 3.96
area under dose-response curve (CARBOPLATIN [14]): 3.87
area under dose-response curve (GEFITINIB [15]): 3.91
area under dose-response curve (YM155 [16]): 2.28
